We go through seven compounds from ChEMBL document CHEMBL2417425, “Design and synthesis of positional isomers of 5 and 6-bromo-1-[(phenyl)sulfonyl]-2-[(4-nitrophenoxy)methyl]-1H-benzimidazoles as possible antimicrobial and antitubercular agents” (2013).

≈ marks a conversion by molar mass, not a printed value.

Common to all, as to type: functional
In test [1] the test system is Escherichia coli. Kind of test: Antibacterial activity against Escherichia coli assessed as growth inhibition by serial dilution method.
Test [2] deals with Mycolicibacterium fortuitum. Kind of test: Antimycobacterial activity against Mycobacterium fortuitum ATCC 19542 assessed as growth inhibition at 0.3125 to 5 ug/mL by resazurin assay.
The test system of test [3] is Klebsiella pneumoniae. Nature of the test: Antibacterial activity against Klebsiella pneumoniae assessed as growth inhibition by serial dilution method.
Test [4] has as its system Rhizopus. Nature of the test: Antifungal activity against Rhizopus sp. assessed as growth inhibition by serial dilution method.
Test [5] deals with Mycolicibacterium fortuitum. Nature of the test: Antimycobacterial activity against Mycobacterium fortuitum ATCC 19542 assessed as growth inhibition at 1 to 100 ug/mL by resazurin assay. In general terms: Alamar Blue is a resazurin reagent that responds to reducing activity.
Test [6] concerns Klebsiella pneumoniae. Nature of the test: Potency index, ratio of ciprofloxacin MIC to compound MIC for Klebsiella pneumoniae.
The test system of test [7] is Candida albicans. Nature of the test: Antifungal activity against Candida albicans assessed as growth inhibition by serial dilution method.
The subject of test [8] is Staphylococcus aureus. Nature of the test: Antibacterial activity against Staphylococcus aureus assessed as growth inhibition by serial dilution method.
Test [9] relates to Mycobacterium tuberculosis. Kind of test: Antimycobacterial activity against Mycobacterium tuberculosis H37Rv assessed as growth inhibition at 1 to 100 ug/mL by resazurin assay. The following applies: for MIC: Mycobacterium tuberculosis, H37Rv.
Test [10] has as its system Mycobacterium tuberculosis. Nature of the test: Antimycobacterial activity against Mycobacterium tuberculosis H37Rv assessed as growth inhibition at 0.3125 to 5 ug/mL by resazurin assay.
The subject of test [11] is Mycolicibacterium smegmatis. Kind of test: Antimycobacterial activity against Mycobacterium smegmatis ATCC 19420 assessed as growth inhibition at 1 to 100 ug/mL by resazurin assay.
For test [12], the system named is Aspergillus flavus. Kind of test: Antifungal activity against Aspergillus flavus assessed as growth inhibition by serial dilution method.
Test [13] relates to Mycolicibacterium smegmatis. Nature of the test: Antimycobacterial activity against Mycobacterium smegmatis ATCC 19420 assessed as growth inhibition at 0.3125 to 5 ug/mL by resazurin assay.
The subject of test [14] is Staphylococcus aureus. Nature of the test: Potency index, ratio of ciprofloxacin MIC to compound MIC for Staphylococcus aureus.

One may read the MIC as the lowest concentration that inhibits growth of the organism. Consider `O=[N+]([O-])c1ccc(OCc2nc3cc(Br)ccc3n2S(=O)(=O)c2cc(Cl)ccc2Cl)cc1`, for which the MIC in test [1] is 4 µg/mL (≈ 7.18 µM); in test [2], 10 µg/mL (≈ 17.9 µM); in [3] it was 8 µg/mL (≈ 14.4 µM); in test [4], 16 µg/mL (≈ 28.7 µM); in [5] it was 10 µg/mL (≈ 17.9 µM); in test [7], 64 µg/mL (≈ 115 µM). Further, the minimum inhibitory concentration (MIC) in test [8] is 8 µg/mL (≈ 14.4 µM); in test [9], > 100 µg/mL; in test [10], 1.25 µg/mL (≈ 2.24 µM); in [11] it was 10 µg/mL (≈ 17.9 µM); in test [12], 32 µg/mL (≈ 57.4 µM). The PI in [6] was 1. Further, the “growth inhibition (GI)” value in test [9] amounted to 90%.
Take `O=[N+]([O-])c1ccc(OCc2nc3cc(Br)ccc3n2S(=O)(=O)c2cc(F)ccc2F)cc1`: the minimal inhibitory concentration (MIC) in test [1] was 32 µg/mL (≈ 61 µM); in test [2], 10 µg/mL (≈ 19.1 µM); in test [3] it was 4 µg/mL (≈ 7.63 µM); in test [4], 16 µg/mL (≈ 30.5 µM); in test [13], 10 µg/mL (≈ 19.1 µM); in test [5], 10 µg/mL (≈ 19.1 µM). Further, the minimal inhibitory concentration (MIC) is 16 µg/mL (≈ 30.5 µM) in [7]; 4 µg/mL (≈ 7.63 µM) in test [8]; 1 µg/mL (≈ 1.91 µM) in test [9]; 0.625 µg/mL (≈ 1.19 µM) in test [10]; 10 µg/mL (≈ 19.1 µM) in test [11]; 8 µg/mL (≈ 15.3 µM) in test [12]. Also, the PI in [6] amounted to 2; in [14], 1. Further, in test [9], the “growth inhibition (GI)” value is 95%.
For `O=[N+]([O-])c1ccc(OCc2nc3cc(Br)ccc3n2S(=O)(=O)c2ccccc2Cl)cc1`, the MIC came out at 4 µg/mL (≈ 7.65 µM) in test [1]; 10 µg/mL (≈ 19.1 µM) in test [2]; 8 µg/mL (≈ 15.3 µM) in [3]; 16 µg/mL (≈ 30.6 µM) in test [4]; 1.25 µg/mL (≈ 2.39 µM) in test [13]; 10 µg/mL (≈ 19.1 µM) in [5]. For the same compound, the MIC turned out to be 8 µg/mL (≈ 15.3 µM) in [7]; 16 µg/mL (≈ 30.6 µM) in test [8]; 1 µg/mL (≈ 1.91 µM) in test [9]; 0.625 µg/mL (≈ 1.2 µM) in test [10]; 1 µg/mL (≈ 1.91 µM) in test [11]; 32 µg/mL (≈ 61.2 µM) in test [12]. Further, the PI in [6] stood at 1. In addition, the “growth inhibition (GI)” value in [9] worked out at 90%.
On to `COc1ccc(S(=O)(=O)n2c(COc3ccc([N+](=O)[O-])cc3)nc3cc(Br)ccc32)c(OC)c1`, for which the minimal inhibitory concentration (MIC) in [1] was determined as 256 µg/mL (≈ 467 µM); in test [2], 1.25 µg/mL (≈ 2.28 µM); in test [3] it was 128 µg/mL (≈ 233 µM); in [4], 256 µg/mL (≈ 467 µM); in test [13] it was 1.25 µg/mL (≈ 2.28 µM); in test [5] it was 10 µg/mL (≈ 18.2 µM). The minimum inhibitory concentration (MIC) in [7] turned out to be 128 µg/mL (≈ 233 µM); in test [8] it was 64 µg/mL (≈ 117 µM); in test [9], 1 µg/mL (≈ 1.82 µM); in test [10] it was 1.25 µg/mL (≈ 2.28 µM); in test [11], 1 µg/mL (≈ 1.82 µM); in test [12], 128 µg/mL (≈ 233 µM). In addition, in test [9], the “growth inhibition (GI)” value is recorded as 90%.
For the compound `O=[N+]([O-])c1ccc(OCc2nc3ccc(Br)cc3n2S(=O)(=O)c2cc(F)ccc2F)cc1`, the MIC in test [1] was 64 µg/mL (≈ 122 µM); in [2], 10 µg/mL (≈ 19.1 µM); in test [3], > 256 µg/mL; in test [4], 256 µg/mL (≈ 488 µM); in test [13] it was 10 µg/mL (≈ 19.1 µM); in [5], 10 µg/mL (≈ 19.1 µM). Further, the minimum inhibitory concentration (MIC) in test [7] was determined as 128 µg/mL (≈ 244 µM); in [8], 128 µg/mL (≈ 244 µM); in [9] it was 10 µg/mL (≈ 19.1 µM); in test [10] it was 2.5 µg/mL (≈ 4.77 µM); in test [11] it was 10 µg/mL (≈ 19.1 µM); in test [12], 64 µg/mL (≈ 122 µM). The “growth inhibition (GI)” value in [9] is <90%.
Turning to `Cc1c(F)cccc1S(=O)(=O)n1c(COc2ccc([N+](=O)[O-])cc2)nc2cc(Br)ccc21`, the MIC in test [1] is > 256 µg/mL; in [2] it was 10 µg/mL (≈ 19.2 µM); in [3], 128 µg/mL (≈ 246 µM); in test [4] it was 256 µg/mL (≈ 492 µM); in test [13], 10 µg/mL (≈ 19.2 µM); in [5], 10 µg/mL (≈ 19.2 µM). Besides, the MIC in test [7] is 128 µg/mL (≈ 246 µM); in test [8], 64 µg/mL (≈ 123 µM); in test [9], > 100 µg/mL; in test [10], 10 µg/mL (≈ 19.2 µM); in test [11], > 100 µg/mL; in [12] it was 256 µg/mL (≈ 492 µM). Further, in [9], the “growth inhibition (GI)” value is on record as <90%.
For `O=[N+]([O-])c1ccc(OCc2nc3cc(Br)ccc3n2S(=O)(=O)c2ccccc2[N+](=O)[O-])cc1`, the minimal inhibitory concentration (MIC) was determined as 32 µg/mL (≈ 60 µM) in [1]; 10 µg/mL (≈ 18.8 µM) in [2]; 4 µg/mL (≈ 7.5 µM) in [3]; 16 µg/mL (≈ 30 µM) in [4]; 1.25 µg/mL (≈ 2.34 µM) in [13]; 10 µg/mL (≈ 18.8 µM) in test [5]. Moreover, the MIC in [7] came to 16 µg/mL (≈ 30 µM); in [8] it was 4 µg/mL (≈ 7.5 µM); in test [9] it was 1 µg/mL (≈ 1.88 µM); in test [10], 0.625 µg/mL (≈ 1.17 µM); in test [11], 1 µg/mL (≈ 1.88 µM); in test [12], 8 µg/mL (≈ 15 µM). Also, the PI amounted to 2 in test [6] and 1 in [14]. The “growth inhibition (GI)” value in [9] was found to be 95%.
